The target of one data set is T1, Aurora-2 (Homo sapiens, UniProt O14965).
T1 sequence (O14965 1-403): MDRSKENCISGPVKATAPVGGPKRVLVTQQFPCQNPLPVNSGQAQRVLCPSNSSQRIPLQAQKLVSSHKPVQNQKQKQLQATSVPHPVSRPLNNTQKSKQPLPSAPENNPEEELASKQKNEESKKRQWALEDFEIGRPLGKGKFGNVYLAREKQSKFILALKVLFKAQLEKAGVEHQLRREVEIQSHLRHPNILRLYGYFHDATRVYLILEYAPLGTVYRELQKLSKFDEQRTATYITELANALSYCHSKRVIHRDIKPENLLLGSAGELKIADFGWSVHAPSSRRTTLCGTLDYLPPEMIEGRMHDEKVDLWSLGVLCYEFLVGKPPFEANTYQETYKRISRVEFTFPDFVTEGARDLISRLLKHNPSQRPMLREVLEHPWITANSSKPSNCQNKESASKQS
As to the kind of experiment: Ki determination for the inhibition of Aurora-2 (coupled enzyme assay). The class given is biochemical. Conditions: 70 nM Aurora-2, peptide LRRASLG, 30° C. The gist of the method:
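Ki came from reaction rates plotted against inhibitor concentration, with rates taken as A340 decrease over 5 min at 30° C. Enzyme (70 nM final) was added after 10 min compound preincubation; stock buffer held […], 800 μM LRRASLG, PK/LDH coupling, pH 7.5.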

Another data set has as its target T2, GSK-3β (AA 1-420) (Homo sapiens, UniProt P49841).
T2 construct: GSK-3β (AA 1-420)
Put plainly: Ki determination for the inhibition of GSK-3 (coupled enzyme system). It is filed as biochemical. Conditions: 20 μM ATP, 300 μM peptide, 20 nM GSK-3β, 30° C. The gist of the method:
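Ki values come from reaction rates over 10 min at 30 °C as a function of inhibitor concentration (12-point titration, 0.002–30 μM, 10 min preincubation). GSK-3β (AA 1-420, 20 nM) phosphorylated 300 μM primed peptide with 20 μM ATP; ADP formation followed by coupled NADH oxidation, pH 7.5.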

Structures are written as SMILES. A value given as a limit tells only on which side of the number the result lay.

As usually defined, the Ki is a measure of affinity in units of concentration, obtained from inhibition or displacement. By melting point is commonly meant the temperature of the solid-liquid transition.

T2 sequence (P49841 whole entry, the tested form may be a part): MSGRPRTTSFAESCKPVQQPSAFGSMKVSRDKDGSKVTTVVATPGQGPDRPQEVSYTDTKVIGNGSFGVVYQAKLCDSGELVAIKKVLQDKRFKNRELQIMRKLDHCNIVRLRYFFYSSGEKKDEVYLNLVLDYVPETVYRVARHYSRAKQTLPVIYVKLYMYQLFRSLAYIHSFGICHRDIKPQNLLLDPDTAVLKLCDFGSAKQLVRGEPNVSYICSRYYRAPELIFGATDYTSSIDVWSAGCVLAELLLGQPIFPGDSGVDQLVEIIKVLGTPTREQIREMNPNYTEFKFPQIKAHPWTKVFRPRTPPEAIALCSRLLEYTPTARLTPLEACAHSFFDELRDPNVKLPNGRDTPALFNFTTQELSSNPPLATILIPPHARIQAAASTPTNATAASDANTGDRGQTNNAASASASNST

In the case of `Cc1cc(Nc2cc(-c3ccccc3)nc3ccccc23)n[nH]1` [Compound V-4, (5-Methyl-2H-pyrazol-3-yl)-(2-phenyl-quinolin-4-yl)-amine], the melting point fell in the range of 242 to 244 °C. At Aurora-2, this compound returned a Ki of 100 to 1000 nM. The Ki at GSK-3β (AA 1-420) is 1000 to 20000 nM.

`Cc1cc(Nc2n[nH]c3ccccc23)nc(-c2ccccc2C(F)(F)F)n1` [II-19, (1H-Indazol-3-yl)-[6-methyl-2-(2-trifluoromethyl-phenyl)-pyrimidin-4-yl]-amine] displayed a melting point of 235 to 237 °C. On Aurora-2, this compound showed a Ki of 1000 to 20000 nM. On GSK-3β (AA 1-420), this compound yielded a Ki below 100 nM.

`Cc1cc(Nc2nc(-c3ccc(C(C)(C)C)cc3)nc3ccccc23)[nH]n1` [III-41, [2-(4-tert-Butylphenyl)-quinazolin-4-yl]-(5-methyl-2H-pyrazol-3-yl)-amine] registered a melting point above 300 °C. Moreover, the Ki at Aurora-2 was below 100 nM. Besides, on GSK-3β (AA 1-420), the Ki was in the range of 100 to 1000 nM.

In turn, `Cc1cc(Nc2nc(-c3cccc(Oc4ccccc4)c3)nc3ccccc23)[nH]n1` [III-60, (5-Methyl-2H-pyrazol-3-yl)-[2-(3-phenoxyphenyl)-quinazolin-4-yl]-amine] returned a melting point of 231 to 232 °C. For the same compound, the Ki at Aurora-2 is below 100 nM. In addition, the inhibitory constant (Ki) on GSK-3β (AA 1-420) is below 100 nM.

For the compound `c1ccc(Oc2cccc(-c3nc(Nc4cc(C5CC5)n[nH]4)c4ccccc4n3)c2)cc1` [III-61, (5-Cyclopropyl-2H-pyrazol-3-yl)-[2-(3-phenoxyphenyl)-quinazolin-4-yl]-amine], the melting point lay in the range of 193 to 195 °C. Also, the inhibition constant (Ki) at Aurora-2 was below 100 nM. The same compound returned a Ki on GSK-3β (AA 1-420) below 100 nM.

As to `c1ccc2c(Nc3ccn[nH]3)nc(-c3ccncc3)nc2c1` [III-64, (2H-Pyrazol-3-yl)-(2-pyridin-4-yl-quinazolin-4-yl)-amine], the melting point lay in the range of 285 to 286 °C. Further, the inhibition constant (Ki) at Aurora-2 was in the range of 100 to 1000 nM. For the same compound, the inhibition constant Ki at GSK-3β (AA 1-420) was 100 to 1000 nM.

On to `CC(C)c1cc(Nc2nc(-c3ccccc3)nc3ccccc23)[nH]n1` [III-67, (5-Isopropyl-2H-pyrazol-3-yl)-(2-phenyl-quinazolin-4-yl)-amine], for which the melting point lay in the range of 218 to 219 °C. The same compound returned a Ki on Aurora-2 below 100 nM. Also, the Ki at GSK-3β (AA 1-420) is below 100 nM.

`CC(C)(C)c1cc(Nc2nc(-c3ccccc3)nc3ccccc23)[nH]n1` [III-68, (5-tert-Butyl-2H-pyrazol-3-yl)-(2-phenyl-quinazolin-4-yl)-amine] came in with a melting point of 136 to 137 °C. On Aurora-2, this compound showed a Ki of 1000 to 20000 nM. The compound also yielded a Ki on GSK-3β (AA 1-420) of 1000 to 20000 nM.

Compound `c1ccc(-c2cc(Nc3nc(-c4ccccc4)nc4ccccc34)[nH]n2)cc1` [III-71, (5-Phenyl-2H-pyrazol-3-yl)-(2-phenyl-quinazolin-4-yl)-amine] had a melting point of 207 to 209 °C. Moreover, on Aurora-2, the Ki lay in the range of 100 to 1000 nM. In addition, the Ki on GSK-3β (AA 1-420) was in the range of 100 to 1000 nM.

For the compound `COC(=O)c1cc(Nc2nc(-c3ccccc3)nc3ccccc23)[nH]n1` [III-73, (5-Methoxycarbonyl-2H-pyrazol-3-yl)-(2-phenyl-quinazolin-4-yl)-amine], the melting point lay within 271 to 273 °C. The compound further registered a Ki at Aurora-2 of 100 to 1000 nM. Moreover, the Ki on GSK-3β (AA 1-420) is below 100 nM.

Take `OCc1cc(Nc2nc(-c3ccccc3)nc3ccccc23)[nH]n1` [III-74, (5-Hydroxymethyl-2H-pyrazol-3-yl)-(2-phenyl-quinazolin-4-yl)-amine]: the melting point was 238 to 239 °C. This compound registered a Ki at Aurora-2 of 100 to 1000 nM. On GSK-3β (AA 1-420), this compound came in with a Ki of 100 to 1000 nM.

Compound `CC(C)(C)OC(=O)NCCCc1cc(Nc2nc(-c3ccccc3)nc3ccccc23)[nH]n1` [III-80, [5-(3-tert-Butoxycarbonylaminoprop-1-yl)-2H-pyrazol-3-yl]-(2-phenyl-quinazolin-4-yl)-amine] gave a melting point of 199 to 200 °C. Moreover, the Ki at Aurora-2 is below 100 nM.

As to `Cc1cc(Nc2nc(N3CCC(N4CCCC4)CC3)nc3ccccc23)[nH]n1` [III-113], the melting point was found to be 191 °C. The compound also came in with an inhibition constant (Ki) at Aurora-2 of 100 to 1000 nM.
